The record followed here is ChEMBL document CHEMBL1141386, “Metabolites from the Lichen Ochrolechia parella growing under two different heliotropic conditions” (J Nat Prod, 2007).

The subject of this assay is B16. The assay can be described thus: Cytotoxicity against murine B16 cells by MTT assay. As to conditions: Mus musculus. The class given is cell-based.
Take `COc1cccc2c1C(=O)c1c(O)c3c(c(O)c1C2=O)C[C@@](O)(C(=O)CO)C[C@@H]3O[C@H]1C[C@H](N)[C@H](O)[C@H](C)O1` [DOXORUBICIN]: it took 0.1 µM to reach half-maximal inhibition (IC50).
For the compound `Cc1cc(O)cc2c1C(=O)Oc1cc3c(c(O)c1O2)C(=O)OC3` [VARIOLARIC ACID], the IC50 (as a rule, the concentration that inhibits the measured activity by half) amounted to 38.7 µM.
The value for `CC(C)[C@@H](C)/C=C/[C@@H](C)[C@H]1CC[C@@H]2[C@]1(C)CC[C@H]1[C@]23C=C[C@]2(C[C@@H](O)CC[C@]12C)OO3` [ERGOSTEROL PEROXIDE] was 77.9 µM; that for `CCCCCC(=O)Cc1cc(O)cc2c1C(=O)Oc1cc(O)c(C(=O)O)c(CC(=O)CCCCC)c1O2` was 10.3 µM.
